Values quoted from earlier work as cited in patent US20050084461A1, “Tooth enamel rejuvenating toothpaste” (priority 2003, published 2005).

Conditions: pH of about 7.0, temperature of about 25° C.

Compound: O.O.O=P([O-])([O-])O.[Ca+2] [dicalcium phosphate dihydrate]
- calcium cations released in aqueous solution: about 40 ppm
